Read-outs that look alike come from different tables or passages of the source.
Assays:
Test in all cases: Test D pre-/postemergence plant response
Type in all cases: in vivo
[1] = system: lambsquarters (Chenopodium album); settings: Chenopodium album; for pest or weed control at 16 g/ha: 16 g ai/ha; for pest or weed control at 31 g/ha: 31 g ai/ha; for pest or weed control at 62 g/ha: 62 g ai/ha; for pest or weed control at 125 g/ha: 125 g ai/ha
Outline: (§1)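 0 = no effect, 100 = complete control: plants were scored this way by visual comparison with controls 13 to 15 days post-treatment. Application was preemergence to sown loam/sand pots or postemergence to 2–18 cm seedlings in peat-based mix.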

[2] = system: yellow nutsedge (Cyperus esculentus); settings: Cyperus; for pest or weed control at 16 g/ha: 16 g ai/ha; for pest or weed control at 31 g/ha: 31 g ai/ha; for pest or weed control at 62 g/ha: 62 g ai/ha; for pest or weed control at 125 g/ha: 125 g ai/ha
Outline: as §1

[3] = system: morningglory (Ipomoea coccinea); settings: Ipomoea; for pest or weed control at 16 g/ha: 16 g ai/ha; for pest or weed control at 31 g/ha: 31 g ai/ha; for pest or weed control at 62 g/ha: 62 g ai/ha; for pest or weed control at 125 g/ha: 125 g ai/ha
Outline: as §1

[4] = system: winter wheat (Triticum aestivum); settings: Triticum aestivum; for plant injury at 16 g/ha: 16 g ai/ha; for plant injury at 31 g/ha: 31 g ai/ha; for plant injury at 62 g/ha: 62 g ai/ha; for plant injury at 125 g/ha: 125 g ai/ha
Outline: as §1

[5] = system: waterhemp (common waterhemp, Amaranthus rudis); settings: Amaranthus tuberculatus; for pest or weed control at 16 g/ha: 16 g ai/ha; for pest or weed control at 31 g/ha: 31 g ai/ha; for pest or weed control at 62 g/ha: 62 g ai/ha; for pest or weed control at 125 g/ha: 125 g ai/ha
Outline: as §1

[6] = system: pigweed (Amaranthus retroflexus); settings: Amaranthus retroflexus; for pest or weed control at 16 g/ha: 16 g ai/ha; for pest or weed control at 31 g/ha: 31 g ai/ha; for pest or weed control at 62 g/ha: 62 g ai/ha; for pest or weed control at 125 g/ha: 125 g ai/ha
Outline: as §1

[7] = system: galium (catchweed bedstraw, Galium aparine); settings: Galium; for pest or weed control at 16 g/ha: 16 g ai/ha; for pest or weed control at 31 g/ha: 31 g ai/ha; for pest or weed control at 62 g/ha: 62 g ai/ha; for pest or weed control at 125 g/ha: 125 g ai/ha
Outline: as §1

[8] = system: barnyardgrass (Echinochloa crus-galli); settings: Echinochloa crus-galli; for pest or weed control at 16 g/ha: 16 g ai/ha; for pest or weed control at 31 g/ha: 31 g ai/ha; for pest or weed control at 62 g/ha: 62 g ai/ha; for pest or weed control at 125 g/ha: 125 g ai/ha
Outline: as §1

[9] = system: johnsongrass (Sorghum halepense); settings: Sorghum halepense; for pest or weed control at 16 g/ha: 16 g ai/ha; for pest or weed control at 31 g/ha: 31 g ai/ha; for pest or weed control at 62 g/ha: 62 g ai/ha; for pest or weed control at 125 g/ha: 125 g ai/ha
Outline: as §1

[10] = pre-emergence, Preemergence, scale 0 to 100 (0 no effect, 100 complete control), read-out: Plant response rating, Lambsquarters
[11] = pre-emergence, Preemergence, scale 0 to 100 (0 no effect, 100 complete control), read-out: Plant response rating, Nutsedge, Yellow
[12] = pre-emergence, Preemergence, scale 0 to 100 (0 no effect, 100 complete control), read-out: Plant response rating, Morningglory
[13] = pre-emergence, Preemergence, scale 0 to 100 (0 no effect, 100 complete control), read-out: Plant response rating, Wheat
[14] = pre-emergence, Preemergence, scale 0 to 100 (0 no effect, 100 complete control), read-out: Plant response rating, Waterhemp
[15] = pre-emergence, Preemergence, scale 0 to 100 (0 no effect, 100 complete control), read-out: Plant response rating, Pigweed
[16] = post-emergence, Postemergence, scale 0 to 100, 0 no effect, 100 complete control, read-out: Plant response rating, Galium
[17] = pre-emergence, Preemergence, scale 0 to 100 (0 no effect, 100 complete control), read-out: Plant response rating, Galium
[18] = post-emergence, Postemergence, scale 0 to 100, 0 no effect, 100 complete control, read-out: Plant response rating, Barnyardgrass
[19] = pre-emergence, Preemergence, scale 0 to 100 (0 no effect, 100 complete control), read-out: Plant response rating, Barnyardgrass
[20] = post-emergence, Postemergence, scale 0 to 100, 0 no effect, 100 complete control, read-out: Plant response rating, Johnsongrass
[21] = pre-emergence, Preemergence, scale 0 to 100 (0 no effect, 100 complete control), read-out: Plant response rating, Johnsongrass

Work on `FC(F)(F)c1cc(-c2ccccc2Oc2ncc(Cl)cn2)no1` [Compound 200, 5-chloro-2-[2-[5-(trifluoromethyl)-3-isoxazolyl]phenoxy]pyrimidine] yielded a pest or weed control at 16 g/ha ([1]; post-emergence, Postemergence, read-out: Plant response rating (scale 0 to 100), Lambsquarters) of 70%, a pest or weed control at 31 g/ha ([1]; post-emergence, Postemergence, scale 0 to 100 (0 no effect, 100 complete control), read-out: Lambsquarters plant response rating) of 80% and a pest or weed control at 62 g/ha ([1]; post-emergence, Postemergence, scale 0 to 100, 0 no effect, 100 complete control, read-out: Lambsquarters plant response rating) of 85%. The pest or weed control at 125 g/ha ([1]; post-emergence, Postemergence, scale 0 to 100, 0 no effect, 100 complete control, read-out: Plant response rating, Lambsquarters) was 98%, the pest or weed control at 125 g/ha ([1]; pre-emergence, Preemergence, read-out: Plant response rating (scale 0 to 100), Lambsquarters) was 100% and the pest or weed control at 16 g/ha [1, 10] was 75%. It also gave a pest or weed control at 31 g/ha [1, 10] of 98%, a pest or weed control at 62 g/ha [1, 10] of 95% and a pest or weed control at 16 g/ha ([2]; post-emergence, Postemergence, read-out: Plant response rating (scale 0 to 100), Nutsedge, Yellow) of 5%. The pest or weed control at 31 g/ha ([2]; post-emergence, Postemergence, scale 0 to 100 (0 no effect, 100 complete control), read-out: Nutsedge, Yellow plant response rating) was 5%, the pest or weed control at 62 g/ha ([2]; post-emergence, Postemergence, scale 0 to 100, 0 no effect, 100 complete control, read-out: Nutsedge, Yellow plant response rating) was 5% and the pest or weed control at 125 g/ha ([2]; post-emergence, Postemergence, scale 0 to 100, 0 no effect, 100 complete control, read-out: Plant response rating, Nutsedge, Yellow) was 15%. The pest or weed control at 125 g/ha ([2]; pre-emergence, Preemergence, read-out: Plant response rating (scale 0 to 100), Nutsedge, Yellow) was 15%, the pest or weed control at 16 g/ha [2, 11] was 0% and the pest or weed control at 31 g/ha [2, 11] was 0%. For the same compound, the pest or weed control at 62 g/ha [2, 11] was 0%, the pest or weed control at 16 g/ha ([3]; post-emergence, Postemergence, read-out: Plant response rating (scale 0 to 100), Morningglory) was 55% and the pest or weed control at 31 g/ha ([3]; post-emergence, Postemergence, scale 0 to 100 (0 no effect, 100 complete control), read-out: Morningglory plant response rating) was 50%. For the same compound, the pest or weed control at 62 g/ha ([3]; post-emergence, Postemergence, scale 0 to 100, 0 no effect, 100 complete control, read-out: Morningglory plant response rating) was 85%, the pest or weed control at 125 g/ha ([3]; post-emergence, Postemergence, scale 0 to 100, 0 no effect, 100 complete control, read-out: Plant response rating, Morningglory) was 98% and the pest or weed control at 125 g/ha ([3]; pre-emergence, Preemergence, read-out: Plant response rating (scale 0 to 100), Morningglory) was 90%. It also gave a pest or weed control at 16 g/ha [3, 12] of 5%, a pest or weed control at 31 g/ha [3, 12] of 45% and a pest or weed control at 62 g/ha [3, 12] of 70%. It also gave a plant injury at 16 g/ha ([4]; post-emergence, Postemergence, read-out: Plant response rating (scale 0 to 100), Wheat) of 5%, a plant injury at 31 g/ha ([4]; post-emergence, Postemergence, scale 0 to 100 (0 no effect, 100 complete control), read-out: Wheat plant response rating) of 10% and a plant injury at 62 g/ha ([4]; post-emergence, Postemergence, scale 0 to 100, 0 no effect, 100 complete control, read-out: Wheat plant response rating) of 25%. The plant injury at 125 g/ha ([4]; post-emergence, Postemergence, scale 0 to 100, 0 no effect, 100 complete control, read-out: Plant response rating, Wheat) was 20%, the plant injury at 125 g/ha ([4]; pre-emergence, Preemergence, read-out: Plant response rating (scale 0 to 100), Wheat) was 40% and the plant injury at 16 g/ha [4, 13] was 0%. The plant injury at 31 g/ha [4, 13] was 5%, the plant injury at 62 g/ha [4, 13] was 20% and the pest or weed control at 16 g/ha ([5]; post-emergence, Postemergence, read-out: Plant response rating (scale 0 to 100), Waterhemp) was 80%. It also gave a pest or weed control at 31 g/ha ([5]; post-emergence, Postemergence, scale 0 to 100 (0 no effect, 100 complete control), read-out: Waterhemp plant response rating) of 90%, a pest or weed control at 62 g/ha ([5]; post-emergence, Postemergence, scale 0 to 100, 0 no effect, 100 complete control, read-out: Waterhemp plant response rating) of 98% and a pest or weed control at 125 g/ha ([5]; post-emergence, Postemergence, scale 0 to 100, 0 no effect, 100 complete control, read-out: Plant response rating, Waterhemp) of 100%. The pest or weed control at 125 g/ha ([5]; pre-emergence, Preemergence, read-out: Plant response rating (scale 0 to 100), Waterhemp) was 100%, the pest or weed control at 16 g/ha [5, 14] was 98% and the pest or weed control at 31 g/ha [5, 14] was 100%. For the same compound, the pest or weed control at 62 g/ha [5, 14] was 100%, the pest or weed control at 16 g/ha ([6]; post-emergence, Postemergence, read-out: Plant response rating (scale 0 to 100), Pigweed) was 90% and the pest or weed control at 31 g/ha ([6]; post-emergence, Postemergence, scale 0 to 100 (0 no effect, 100 complete control), read-out: Pigweed plant response rating) was 85%. It also gave a pest or weed control at 62 g/ha ([6]; post-emergence, Postemergence, scale 0 to 100, 0 no effect, 100 complete control, read-out: Pigweed plant response rating) of 85%, a pest or weed control at 125 g/ha ([6]; post-emergence, Postemergence, scale 0 to 100, 0 no effect, 100 complete control, read-out: Plant response rating, Pigweed) of 98% and a pest or weed control at 125 g/ha ([6]; pre-emergence, Preemergence, read-out: Plant response rating (scale 0 to 100), Pigweed) of 100%. It also gave a pest or weed control at 16 g/ha [6, 15] of 100%, a pest or weed control at 31 g/ha [6, 15] of 100% and a pest or weed control at 62 g/ha [6, 15] of 100%. The pest or weed control at 16 g/ha ([7]; post-emergence, Postemergence, read-out: Plant response rating (scale 0 to 100), Galium) was 75%, the pest or weed control at 31 g/ha ([7]; post-emergence, Postemergence, scale 0 to 100 (0 no effect, 100 complete control), read-out: Galium plant response rating) was 100% and the pest or weed control at 62 g/ha [7, 16] was 100%. It also gave a pest or weed control at 125 g/ha [7, 16] of 100%, a pest or weed control at 125 g/ha ([7]; pre-emergence, Preemergence, read-out: Plant response rating (scale 0 to 100), Galium) of 95% and a pest or weed control at 16 g/ha [7, 17] of 85%. For the same compound, the pest or weed control at 31 g/ha [7, 17] was 98%, the pest or weed control at 62 g/ha [7, 17] was 100% and the pest or weed control at 16 g/ha ([8]; post-emergence, Postemergence, read-out: Plant response rating (scale 0 to 100), Barnyardgrass) was 5%. The pest or weed control at 31 g/ha ([8]; post-emergence, Postemergence, scale 0 to 100 (0 no effect, 100 complete control), read-out: Barnyardgrass plant response rating) was 10%, the pest or weed control at 62 g/ha [8, 18] was 10% and the pest or weed control at 125 g/ha [8, 18] was 15%. For the same compound, the pest or weed control at 125 g/ha ([8]; pre-emergence, Preemergence, read-out: Plant response rating (scale 0 to 100), Barnyardgrass) was 100%, the pest or weed control at 16 g/ha [8, 19] was 35% and the pest or weed control at 31 g/ha [8, 19] was 95%. The pest or weed control at 62 g/ha [8, 19] was 100%, the pest or weed control at 16 g/ha ([9]; post-emergence, Postemergence, read-out: Plant response rating (scale 0 to 100), Johnsongrass) was 15% and the pest or weed control at 31 g/ha ([9]; post-emergence, Postemergence, scale 0 to 100 (0 no effect, 100 complete control), read-out: Johnsongrass plant response rating) was 20%. It also gave a pest or weed control at 62 g/ha [9, 20] of 45%, a pest or weed control at 125 g/ha [9, 20] of 40% and a pest or weed control at 125 g/ha ([9]; pre-emergence, Preemergence, read-out: Plant response rating (scale 0 to 100), Johnsongrass) of 100%. It also gave a pest or weed control at 16 g/ha [9, 21] of 25%, a pest or weed control at 31 g/ha [9, 21] of 60% and a pest or weed control at 62 g/ha [9, 21] of 85%.

From patent US10131652B2, “Pyrimidinyloxy benzene derivatives as herbicides” (E. I. DU PONT DE NEMOURS AND COMPANY, priority 2014, dated 2018)
